The results in this text go back to BindingDB's records for doi:10.7270/Q2PR7TFT (Burnham Center For Chemical Genomics, 2010).

In general, EC50 refers to the concentration needed to bring the measured effect to its halfway point.

The experiment concerns the target T1, Type-1 angiotensin II receptor (Homo sapiens, UniProt P30556).
T1 sequence (P30556 whole entry): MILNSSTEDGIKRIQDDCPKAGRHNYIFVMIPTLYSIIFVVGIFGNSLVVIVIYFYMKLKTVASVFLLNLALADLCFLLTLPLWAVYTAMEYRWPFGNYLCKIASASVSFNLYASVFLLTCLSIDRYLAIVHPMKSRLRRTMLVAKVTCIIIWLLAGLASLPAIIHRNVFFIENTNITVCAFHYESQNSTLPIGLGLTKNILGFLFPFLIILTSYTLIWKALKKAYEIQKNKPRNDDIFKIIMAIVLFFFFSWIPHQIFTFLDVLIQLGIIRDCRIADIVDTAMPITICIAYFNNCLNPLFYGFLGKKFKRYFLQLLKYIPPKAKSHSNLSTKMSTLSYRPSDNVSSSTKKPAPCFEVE
Kind of experiment: AT1 receptor agonists, dose response, selectivity assay for APJ receptor agonist project, cell-based, uHTS hits (AID 488865).
The compound `CCCCCCC1=Cc2c/c(=C3/NN=C(c4cc(OC)c(OC)c(OC)c4)O3)c(=O)oc2=CC1=O` yielded a 50% effective concentration (EC50) greater than 100 µM.

`COc1ccc(CN=Nc2cc(C)nc3ccc(OC)cc23)c(OC)c1` displayed a concentration for a half-maximal effect (EC50) greater than 100 µM.

`CCOC(=O)C1C(Cn2cnc3ccccc32)=NC(=O)NC1c1cc(C)ccc1C` (centres undefined) [ethyl 6-(benzimidazol-1-ylmethyl)-4-(2,5-dimethylphenyl)-2-oxidanylidene-3,4-dihydro-1H-pyrimidine-5-carboxylate] returned an EC50 greater than 100 µM.

Regarding `COC(=O)C1C(Cn2cnc3ccccc32)=NC(=O)NC1c1cc(C)ccc1C` (centres undefined) [methyl 6-(benzimidazol-1-ylmethyl)-4-(2,5-dimethylphenyl)-2-oxo-3,4-dihydro-1H-pyrimidine-5-carboxylate], the EC50 is greater than 100 µM.
